Test results: patent US20250262297A1, “ALLERGY ANTIGEN AND EPITOPE THEREOF” (HOYU CO., LTD., priority 2017, published 2025)

Key:
Type in all cases: binding, human
[1] = tested on: IgE antibodies from soybean-allergic patients; experiment: Immunoblotting of two-dimensional electrophoresis pattern of soybean proteins with patient serum; conditions: spot in 2D electrophoresis gel of soybean proteins; patient serum compared with healthy subject serum
From the text: Transfer to membrane was done using the following transfer system and transfer buffer. • Transfer system: XCell SureLock Mini-Cell and XCell II Blot Module (produced by Life Technologies) • Transfer buffer: NuPAGE Transfer Buffer (X20) (produced by Life Technologies), used in a form diluted 20-fold with milliQ water.
To be specific, proteins in the two-dimensional electrophoresis gels were transferred to a membrane (PVDF membrane) according to the following procedure. • (1) The PVDF membrane was immersed in 100% methanol followed by milliQ water, and then moved into the transfer buffer to hydrophilize the PVDF membrane. • (2) After sponge, filter paper, the gels treated by second-dimensional SDS-PAGE, the hydrophilized PVDF membrane, filter paper, and sponge were put in place in this order, the transfer system was energized at a constant voltage of 30 V for one hour.
Immunoblotting of the membrane was carried out using, as a primary antibody, a serum sample from a patient with a soybean allergy or a serum sample from a healthy subject.
Immunoblotting of the membrane was carried out according to the following procedure. • (1) The transferred membrane was shaken in a 5% skim milk/PBST solution (a PBS buffer containing 0.3% Tween 20 nonionic surfactant) at room temperature for one hour. • (2) The membrane was left to stand in a solution of 3% primary antibody serum in 5% skim milk/PBST at room temperature for one hour. • (3) The membrane was washed with a PBST solution (5 min.×3 times). • (4) The membrane was left to stand in a 1:2500 dilution of the secondary antibody, anti-human IgE-HRP (horseradish peroxidase), with a 3% skim milk/PBST solution at room temperature for one hour. • (5) The membrane was washed with a PBST solution (5 min.×3 times). • (6) The membrane was left to stand in Pierce Western Blotting Substrate Plus (produced by Thermo Fisher Scientific) for 5 minutes.
The membrane obtained through the foregoing series of treatments was subjected to fluorescent image scanning on Typhoon 9400 (produced by GE).
The immunoblots obtained with the serum from the soybean-allergic patient were compared with those obtained with the control serum from the healthy subject.

[2] = tested on: IgE antibody present in the serum of a patient allergic to a soybean; experiment: Epitope mapping and overlapping peptide fragments on SPOT membrane, immunoblotting; conditions: procedure of (B), overlapping
Protocol: Epitope mapping was carried out using a library of overlapping peptide fragments (length: 15 amino acids) corresponding to the sequences of proteins bound patient-specifically to IgE antibodies in serum, which were obtained as a result of 2D-western of soybeans.
The peptides to be synthesized were shifted by 10 amino acids.
For preparation of peptide arrays, peptide synthesis of interest was carried out in incremental steps on a modified cellulose membrane by the Intavis SPOT synthesis technique, which is a technique of synthesizing peptides of interest through 9-fluorenylmethoxycarbonyl (Fmoc) chemical reaction, using an automated synthesis apparatus (Intavis MultiPep RS). […]
The presence or absence of binding, to each peptide fragment, of an IgE antibody present in the serum of a patient allergic to a soybean was measured by immunoblotting using the membrane on which the peptide fragments were synthesized by SPOT. […]
Thereafter, for the sequences of peptides bound patient-specifically to IgE antibodies in serum in the epitope mapping described above in (A), a library of overlapping peptide fragments (length: 10 amino acids) was obtained as sequences having the sequences of these peptides as well as additional sequences subsequent to the peptides in the amino acid sequences of antigen proteins on which the epitopes were detected. […]

[3] = tested on: IgE antibody from one patient having allergies to a soybean, a peach and an apple; experiment: ELISA of biotinylated peptides, study on cross-reactivity; conditions: FIG. 6
Protocol: The binding activity of peptides comprising the amino acid sequences of SEQ ID NOS: 871, 984 and 985 against an IgE antibody from one patient having allergies to a soybean, a peach and an apple was confirmed by ELISA. The peptides were synthesized such that the peptides were N-terminally biotinylated by the Fmoc method.
To be specific, ELISA was carried out according to the following procedure. • (1) The concentrations of the biotinylated peptides were adjusted to 1 μg/mL with PBST. • (2) Each peptide solution was added at 40 μL to each well of a 384-well plate coated with streptavidin, and shaken at room temperature for one hour. After collection of the solution, the wells were washed with PBS five times. • (3) A 1:5 dilution of Blocking one (diluted with MQ) was added at 40 μL thereto and shaken at room temperature for 15 minutes. After removal of the solution, the wells were washed with PBS five times. • (4) A diluted serum solution (1:10, diluting solution: Blocking one produced by Nacalai Tesque, Inc.) was added at 40 μL thereto and shaken at room temperature for one hour. After removal of the solution, the wells were washed with PBS five times. • (5) A diluted secondary antibody solution (1:5000, diluting solution: Blocking one produced by Nacalai Tesque, Inc.) was added at 40 μL thereto and shaken at room temperature for one hour. […] Absorbance at 450 nm was measured.

Substance	specific binding to IgE antibodies from soybean-allergic patients [1]	other results
glyceraldehyde-3-phosphate dehydrogenase isoform X1 [Spot 29α]	specific binding	–
pyrophosphate-fructose 6-phosphate 1-phosphotransferase subunit alpha-like [Spot 12α]	specific binding	–
UTP-glucose-1-phosphate uridylyltransferase [Spot 15α]	specific binding	–
SEQ ID NO: 871: amino acids 1-15 of SEQ ID NO: 495 (seed biotin-containing protein SBP65-like isoform X1) (MASEQMPRRENNSNR; epitope)	–	identified as epitope (common sequence of peptides bound to IgE antibodies from allergic patients) [2]: identified as epitopes; binding to IgE antibody from the allergic patient compared with IgE antibody from a healthy subject [3]: bound more strongly; binding activity against the IgE antibody from the patient ([3]; peptide 1 μg/mL, serum 1:10, absorbance at 450 nm): exhibited binding activity
embryo-specific urease isoform X1 [Spot 4α]	specific binding	–
lysine-tRNA ligase, cytoplasmic-like isoform X2 [Spot 9α]	specific binding	–
seed biotin-containing protein SBP65-like isoform X1 [Spot 38α]	specific binding	–
elongation factor 1-alpha [Spot 35α]	specific binding	–
heat shock cognate protein 80 [Spot 2α]	specific binding	–
methionine synthase [Spot 7α]	specific binding	–
